Several values for one entry are separate records, joined by “and”; a condition that tells them apart may be missing. Equal entries are not always repeated. Toxic doses and inconclusive results are not listed.
Test system: CD2F1 mice, L1210 leukemia sc, survival T/C
Experiment: NCI In Vivo Anticancer Drug Screen. Data for tumor model L1210 Leukemia (subcutaneous) in CD2F1 (CDF1) mice
Settings: endpoint: median survival time, higher = longer survival
Summary of the method: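 Compound given to mice bearing transplantable tumor. Survival or tumor size then recorded. Result expressed relative to vehicle-dosed control group as T/C.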

[1] = dose: 50.0 mg/kg/injection, schedule: Q01DX009 (sc), vehicle: saline with Tween-80
[2] = dose: 100.0 mg/kg/injection, schedule: Q01DX009 (sc), vehicle: saline with Tween-80

## COc1ccc2c(c1)-c1nn(CCCN(C)C)c3ccc([N+](=O)[O-])c(c13)N2
dose: 3.12 mg/kg/injection, schedule: Q01DX009 (ip), vehicle: water
  T/C: 122 % of control
dose: 6.25 mg/kg/injection, schedule: Q01DX009 (ip), vehicle: water
  T/C: 161 % of control
dose: 25.0 mg/kg/injection, schedule: Q01DX009 (ip), vehicle: water
  T/C: 104 % of control

## O=C/C(Br)=C(/Br)C(=O)O
dose: 3.0 mg/kg/injection, schedule: Q01DX Z (sc), vehicle: other
  T/C: 100 % of control
dose: 5.0 mg/kg/injection, schedule: Q01DX Z (sc), vehicle: other
  T/C: 100 % of control
dose: 8.4 mg/kg/injection, schedule: Q01DX Z (sc), vehicle: other
  T/C: 100 % of control
dose: 14.0 mg/kg/injection, schedule: Q01DX Z (sc), vehicle: other
  T/C: 100 % of control
dose: 39.0 mg/kg/injection, schedule: Q01DX Z (sc), vehicle: other
  T/C: 100 % of control

## O=C(Nc1ccc(NC2=NCCN2)cc1)c1cccc(C(=O)Nc2ccc(NC3=NCCN3)cc2)c1
dose: 8.4 mg/kg/injection, schedule: Q01DX Z (sc), vehicle: water
  T/C: 110 % of control
dose: 14.0 mg/kg/injection, schedule: Q01DX Z (sc), vehicle: water
  T/C: 100 % of control
dose: 23.0 mg/kg/injection, schedule: Q01DX Z (sc), vehicle: water
  T/C: 105 % of control
dose: 39.0 mg/kg/injection, schedule: Q01DX Z (sc), vehicle: water
  T/C: 110 % of control

## CSCS(=O)C[C@H](CO)NC(=O)/C=C/c1c(C)[nH]c(=O)[nH]c1=O (some centres not stated)
dose: 1.08 mg/kg/injection, schedule: Q01DX Z (sc), vehicle: saline
  T/C: 110 % of control
dose: 1.8 mg/kg/injection, schedule: Q01DX Z (sc), vehicle: saline
  T/C: 110 % of control
dose: 3.0 mg/kg/injection, schedule: Q01DX Z (sc), vehicle: saline
  T/C: 100 % of control
dose: 5.0 mg/kg/injection, schedule: Q01DX Z (sc), vehicle: saline
  T/C: 90 % of control

## CN1c2c(nc(N)[nH]c2=O)NCC1CCNc1ccc(C(=O)NC(CCC(=O)O)C(=O)O)cc1 (configuration not stated)
dose: 200.0 mg/kg/injection, schedule: Q01DX009 (ip), vehicle: other
  T/C: 150 % of control
dose: 200.0 mg/kg/injection, schedule: Q01DX Z (ip), vehicle: other
  T/C: 155 % of control
dose: 200.0 mg/kg/injection, schedule: Q04DX003 (ip), vehicle: other
  T/C: 116 % of control
dose: 400.0 mg/kg/injection, schedule: Q01DX009 (ip), vehicle: other
  T/C: 155 % of control
dose: 400.0 mg/kg/injection, schedule: Q01DX Z (ip), vehicle: other
  T/C: 155 % of control and 166 % of control
dose: 400.0 mg/kg/injection, schedule: Q04DX003 (ip), vehicle: other
  T/C: 111 % of control
dose: 1600.0 mg/kg/injection, schedule: Q04DX003 (ip), vehicle: other
  T/C: 111 % of control

## CC(CN1CC(=O)NC(=O)C1)N1CC(=O)NC(=O)C1 (configuration not stated)
dose: 1.25 mg/kg/injection, schedule: Q01DX009 (ip), vehicle: saline with Tween-80
  T/C: 119 % of control
dose: 1.88 mg/kg/injection, schedule: Q01DX009 (sc), vehicle: saline with Tween-80
  T/C: 113 % of control
dose: 2.5 mg/kg/injection, schedule: Q01DX009 (ip), vehicle: saline with Tween-80
  T/C: 114 % of control
dose: 15.0 mg/kg/injection, schedule: Q01DX009 (ip), vehicle: saline with Tween-80
  T/C: 159 % of control
dose: 15.0 mg/kg/injection, schedule: Q01DX009 (sc), vehicle: saline with Tween-80
  T/C: 178 % of control
dose: 15.0 mg/kg/injection, schedule: Q01DX009 (sc), vehicle: saline
  T/C: 124 % of control
dose: 20.0 mg/kg/injection, schedule: Q01DX009 (sc), vehicle: saline with Tween-80
  T/C: 156 % of control
dose: 30.0 mg/kg/injection, schedule: Q01DX009 (ip), vehicle: saline with Tween-80
  T/C: 178 % of control
dose: 35.0 mg/kg/injection, schedule: Q01DX009 (sc), vehicle: saline with Tween-80
  T/C: 191 % of control
dose: 40.0 mg/kg/injection, schedule: Q01DX009 (ip), vehicle: saline with Tween-80
  T/C: 165 % of control
dose: 40.0 mg/kg/injection, schedule: Q01DX009 (sc), vehicle: saline with Tween-80
  T/C: 186 % of control
dose: 45.0 mg/kg/injection, schedule: Q01DX009 (sc), vehicle: saline with Tween-80
  T/C: 190 % of control and 192 % of control
[1]
  T/C: 195 % of control
dose: 60.0 mg/kg/injection, schedule: Q01DX009 (sc), vehicle: saline with Tween-80
  T/C: 164 % of control
dose: 90.0 mg/kg/injection, schedule: Q01DX009 (ip), vehicle: saline with Tween-80
  T/C: 123 % of control
[2]
  T/C: 163 % of control
dose: 108.0 mg/kg/injection, schedule: Q04DX003 (sc), vehicle: Klucel (hydroxypropylcellulose) (HPC)
  T/C: 119 % of control and 122 % of control
dose: 120.0 mg/kg/injection, schedule: Q01DX009 (ip), vehicle: saline with Tween-80
  T/C: 158 % of control
dose: 120.0 mg/kg/injection, schedule: Q01DX009 (sc), vehicle: saline
  T/C: 157 % of control
dose: 180.0 mg/kg/injection, schedule: Q04DX003 (sc), vehicle: Klucel (hydroxypropylcellulose) (HPC)
  T/C: 122 % of control
dose: 240.0 mg/kg/injection, schedule: Q01DX009 (ip), vehicle: saline with Tween-80
  T/C: 97 % of control
dose: 240.0 mg/kg/injection, schedule: Q01DX009 (sc), vehicle: saline with Tween-80
  T/C: 86 % of control
dose: 300.0 mg/kg/injection, schedule: Q04DX003 (sc), vehicle: Klucel (hydroxypropylcellulose) (HPC)
  T/C: 153 % of control
dose: 833.0 mg/kg/injection, schedule: Q04DX003 (sc), vehicle: Klucel (hydroxypropylcellulose) (HPC)
  T/C: 111 % of control and 112 % of control

## COc1ccc2[nH]c3ccc4cc[n+](CCN5CCC(C6CCN(CC[n+]7ccc8ccc9[nH]c%10ccc(OC)cc%10c9c8c7)CC6)CC5)cc4c3c2c1
dose: 6.9 mg/kg/injection, schedule: Q01DX009 (ip), vehicle: water
  T/C: 104 % of control
dose: 11.5 mg/kg/injection, schedule: Q01DX009 (ip), vehicle: water
  T/C: 107 % of control
dose: 12.5 mg/kg/injection, schedule: Q01DX009 (ip), vehicle: Klucel (hydroxypropylcellulose) (HPC)
  T/C: 204 % of control and 93 % of control
dose: 32.0 mg/kg/injection, schedule: Q01DX009 (ip), vehicle: water
  T/C: 107 % of control
dose: 50.0 mg/kg/injection, schedule: Q01DX009 (ip), vehicle: Klucel (hydroxypropylcellulose) (HPC)
  T/C: 340 % of control

## CC/C(=C(/CC)c1ccc(O)cc1)c1ccc(O)cc1
dose: 12.5 mg/kg/injection, schedule: Q01DX009 (ip), vehicle: saline with Tween-80
  T/C: 103 % of control
dose: 12.5 mg/kg/injection, schedule: Q01DX009 (sc), vehicle: saline with Tween-80
  T/C: 98 % of control
dose: 25.0 mg/kg/injection, schedule: Q01DX009 (ip), vehicle: saline with Tween-80
  T/C: 104 % of control
dose: 25.0 mg/kg/injection, schedule: Q01DX009 (sc), vehicle: saline with Tween-80
  T/C: 98 % of control and 100 % of control
dose: 50.0 mg/kg/injection, schedule: Q01DX009 (ip), vehicle: saline with Tween-80
  T/C: 100 % of control
[1]
  T/C: 102 % of control
dose: 100.0 mg/kg/injection, schedule: Q01DX009 (ip), vehicle: saline with Tween-80
  T/C: 97 % of control
[2]
  T/C: 96 % of control and 97 % of control
dose: 200.0 mg/kg/injection, schedule: Q01DX009 (ip), vehicle: saline with Tween-80
  T/C: 96 % of control
dose: 200.0 mg/kg/injection, schedule: Q01DX009 (sc), vehicle: saline with Tween-80
  T/C: 106 % of control
dose: 400.0 mg/kg/injection, schedule: Q01DX009 (sc), vehicle: saline with Tween-80
  T/C: 101 % of control

## Nc1nc2ncn(O)c2c(=O)[nH]1
dose: 4.5 mg/kg/injection, schedule: Q01DX009 (ip), vehicle: other
  T/C: 278 % of control
dose: 7.5 mg/kg/injection, schedule: Q01DX009 (ip), vehicle: other
  T/C: 164 % of control
dose: 12.5 mg/kg/injection, schedule: Q01DX009 (ip), vehicle: other
  T/C: 268 % of control
dose: 20.83 mg/kg/injection, schedule: Q01DX009 (ip), vehicle: other
  T/C: 113 % of control

— PubChem BioAssay AID258 (DTP/NCI, 2004)
